In patent EP0491813B1, “BIODEGRADABLE CONTROLLED RELEASE MATRICES” (priority 1989, dated 1991):

Test: dermal toxicity test with moistened product (US EPA guidelines), samples secured to skin for 24 hours
Details: rabbit, in vivo, topical or ocular, male rabbits, 24 hours exposure, survivors observed for 14 days, read-out: LD50 DOSAGE
Procedure: Dermal toxicity tests using this formulation, a conventional synthetic polymer formulation comprising 10% w/w phorate and pure phorate (10% w/w) were performed on male rabbits by securing samples to the skin of the test animals for a period of 24 hours. At the expiry of this period rabbits were examined for mortality and surviving rabbits observed for 14 days before sacrifice and examination. The LD50 values are shown below in table 3.

Q: Which LD50 does the source give for `CCOP(=S)(OCC)SCSCC` [Technical grade phorate (10% w/w), phorate] here?
A: The LD50 was 5.2 mg/kg.
